Values joined by “and” are separate entries in the source; they are usually repeats but may differ in a detail not shown here. Equal entries are not always repeated.
Tests used:
[1] = system: normal rats on normal sodium diet; experiment: Micropuncture (glomerular hemodynamics) in normal rats on normal sodium diet; assay type: in vivo, Sprague-Dawley rats
Description: (§1) Experimental Design: All animal procedures were approved by the Animal Care Committee. Male 300-350 g Sprague-Dawley rats were used in all experiments.
(§2) Hyperuricemia in normal rats on normal sodium diet: To produce hyperuricemia, rats were administered oxonic acid (OA) (Sigma, St Louis Mo., USA) 750 mg/kg body weight by gastric gavage. To prevent the rise of serum uric acid induced by OA, allopurinol (AP) (Sigma, St Louis Mo., USA) was administered in drinking water (150 mg/L). We studied the following groups: Control (n=8); OA (n=7) and OA plus allopurinol (n=9). Systolic blood pressure and serum uric acid were measured at baseline and after 30-33 days of follow-up. Micropuncture studies were performed at 5 weeks.
(§3) Micropuncture: Animals were anesthetized with pentobarbital sodium (30 mg/kg ip) and placed on a thermoregulated table to maintain body temperature at 37° C. Trachea, jugular veins, femoral arteries, and the left ureter were catheterized with polyethylene tubing (PE-240, PE-50, and PE-10). The left kidney was exposed, placed in a Lucite holder, sealed with agar, and covered with Ringer's solution. Mean arterial pressure (MAP) was monitored with a pressure transducer (Model p23 db; Gould, San Juan, PR) and recorded on a polygraph (Grass Instruments, Quincy, Mass., USA). Blood samples were taken periodically and replaced with blood from a donor rat. Rats were maintained under euvolemic conditions by infusion of 10 ml/kg of body weight of isotonic rat plasma during surgery, followed by an infusion of 25% polyfructosan, at 2.2 ml/h (Inutest, Laevosan-Gesellschaft, Linz, Austria). After 60 min, five to six 3-min collection samples of proximal tubular fluid were obtained to determine flow rate and polyfructosan concentration. Intratubular pressure under free-flow and stop-flow conditions and peritubular capillary pressure were measured in other proximal tubules with a servo-null device (Servo Nulling Pressure System; Instrumentation for Physiology and Medicine, San Diego, Calif., USA). Polyfructosan was measured in plasma samples. Glomerular colloid osmotic pressure was estimated in protein from blood of the femoral artery (Ca) and surface efferent arterioles (Ce). Polyfructosan concentrations were determined by the technique of Davidson and Sackner (Davidson W D, Sackner Mass.: Simplification of the Antrhone Method for the Determination of Inulin in Clearance Studies. J. Lab Clin. Med. 62:351-356, 1963). The volume of fluid collected from individual proximal tubules was estimated from the length of the fluid column in a constant bore capillary tube of known internal diameter. Concentration of tubular polyfructosan was measured by the method of Vurek and Pegram (Vurek G G, Pegram S E: Fluorometric method for the determination of nanogram quantities of inulin. Ann. Biochem 16:409-419, 1966). Protein concentration in afferent and efferent samples was determined according to the method of Viets et al. (Viets J W, Deen W M, Troy J L, Brenner B M: Determination of serum protein concentration in nanoliter blood samples using fluorescamine or 9-phthalaldehyde. Anal. Biochem 88:513-521, 1978). MAP, GFR, single-nephron GFR (SNGFR), glomerular capillary hydrostatic pressure (Pgc), single-nephron plasma flow (QA), afferent (RA) and efferent (RE) resistances, and Kf, were calculated according to equations given elsewhere (Baylis C, Deen W M, Myers B D, Brenner B M: Effects of some vasodilator drugs on transcapillary fluid exchange in renal cortex. Am. J. Physiol 230:1148-1158, 1976).
(§4) Statistical analysis. Values are expressed as mean±standard error (SE). Differences between groups were evaluated by ANOVA with appropriate correction for multiple comparisons (Bonferroni). The relation between variables was assessed by correlation analysis.

[2] = system: remnant kidney rats (5/6 nephrectomy); experiment: Renal histology in remnant kidney rats; assay type: in vivo, Sprague-Dawley rats; conditions: mean±SE
Description: (§5) Hyperuricemia in remnant kidney rats on normal sodium diet: Under light anesthesia with ether, 5/6 nephrectomy was performed by removal of the right kidney and selective ligation of 2-3 branches of left renal artery. To induce hyperuricemia rats were given OA (750 mg/kg) by gastric gavage starting the day after the renal ablation. To prevent hyperuricemia AP was administered in the drinking water (150 mg/L). The following groups were studied: 5/6 Nx (n=10); 5/6 Nx+OA (n=12) and 5/6 Nx+OA+AP (n=13). Systolic blood pressure, proteinuria and serum uric acid were measured at baseline and after 25-28 days of follow-up. Micropuncture studies were performed at 4 weeks.
(§6) Renal Histology: After the micropuncture study kidneys and remnant kidneys were washed by perfusion with PBS and then fixed with 4% paraformaldehyde. Renal biopsies were embedded in paraffin. Four μm sections of fixed tissue were stained with periodic acid Schiff (PAS) reagent. Arteriolar morphology was assessed by indirect peroxidase immunostaining for alpha-smooth muscle actin (DAIO Corp. Carpinteria, Calif., USA). In addition in remnant kidney rats glomerulosclerosis and fibrosis was assessed with Masson's trichrome stain and tubulointerstitial lymphocytes were assessed by indirect immunoperoxidase immunostaining for anti-CD-5.
Quantification of morphology: Quantifications were performed blinded. Arteriolopathy of afferent arterioles was evaluated as previously described (Sanchez-Lozada L G, Tapia E, Avila-Casado C, Soto V, Franco M, Santamaria J, Nakagawa T, Rodriguez-Iturbe B, Johnson R J, Herrera-Acosta J: Mild hyperuricemia induces glomerular hypertension in normal rats. Am. J. Physiol Renal Physiol 283:F1105-F1110, 2002). In brief, only vessels adjacent to glomeruli were selected. For each arteriole, the outline of the vessel and its internal lumen (excluding the endothelium) was generated using computer analysis to calculate the total medial area (outline-inline), in 10 arterioles per biopsy. The media/lumen ratio was calculated by the outline/inline relationship.
Glomerulosclerosis was evaluated in Masson's trichrome stained sections. The degree of sclerosis was scored as follows: in each biopsy the numbers of glomeruli with segmental, mesangial and global sclerosis as well as normal glomerular tufts were assessed. The resulting index in each animal was expressed as the percent of sclerosed glomeruli.
Tubulointerstitial fibrosis analysis was performed by a pathologist unaware of the origin of each kidney section. Evaluation was performed using slides stained with Masson's trichrome. Five noncrossed fields ([…], enlarged ×40) per biopsy were analyzed, using light microscopy (Olympus B-51. Olympus American, Melville, N.Y.) and captured with a digital video camera (CoolSnap Pro, Media Cybernetics Silver Spring, Md.). Each picture was processed on a computer and analyzed using Image-Pro and Photoshop 7 (Adobe Systems, SanJose, Calif.). Using the capabilities of color recognition by this software, a blue color was selected for positive areas. After selection, these areas were quantified (pixel unit) using the histogram function of the software. For each field, the number of positive areas was expressed as a fraction of the tubulointerstitial area (positive areas divided by the overall field area). Finally, for each biopsy, the mean fractional amount of positive areas was obtained by averaging the values obtained from 5 fields examined. […]

Male Sprague-Dawley rats = experiment: Hyperuricemia and serum nitrites/nitrates (NOx) in rats, Example 2; assay type: in vivo; conditions: for serum uric acid: OA 750 mg/kg/day gavage, AP 150 mg/L drinking water; for Serum nitrites and nitrates (NOx): chemiluminescence
Description: Male Sprague-Dawley rats were housed in standard conditions and fed normal diets. We induced hyperuricemia with an uricase inhibitor, oxonic acid (OA; 750 mg/kg/day), by gavage, with control rats receiving vehicle. Allopurinol (AP) was used to block hyperuricemia by placing AP in the drinking water (150 mg/L). Rats were divided into four groups: (1) Control, (2) AP only, (3) OA only, and (4) OA+AP. Systolic blood pressure was measured using a tail-cuff sphygmomanometer. The amount of drinking water consumed and changes in body weight were noted. Rats were sacrificed at one and seven days. Serum was analyzed for uric acid concentration and nitrites/nitrates (NOx) by chemiluminescence method. (Prabhakar SS: Inhibition of mesangial iNOS by reduced extracellular pH is associated with uncoupling of NADPH oxidation. Kidney Int 61:2015-2024, 2002). Statistical analysis between subgroups was performed using ANOVA.

[3] = system: remnant kidney rats (5/6 nephrectomy); experiment: Hyperuricemia in remnant kidney rats: serum uric acid, systolic blood pressure, proteinuria, body weight; assay type: in vivo, Sprague-Dawley rats
Description: as §1, §5
(§7) Evaluation: In all studies, systolic blood pressure (SBP) was measured by tail cuff sphyngomanometer using an automated system (Narco Biosystems, Houston Tex., USA). All animals were preconditioned for blood pressure measurements 1 week before each experiment. Proteinuria was determined by turbidimetry by the method of trichloroacetic acid (Henry R J, Sobel Ch, Segalove M: Turbidimetric determination of proteins with sulfosalicylic and trichloroacetic acids. Proc Soc Exp Biol Med 92:748-751, 1956). Serum uric acid was measured by colorimetric phosphotungstic acid method using a commercial kit (Wiener Lab, Argentina).
as §4

[4] = system: normal rats on normal sodium diet; experiment: Hyperuricemia in normal rats on normal sodium diet: serum uric acid, systolic blood pressure, body weight; assay type: in vivo, Sprague-Dawley rats
Description: as §1, §2, §7, §4

[5] = system: remnant kidney rats (5/6 nephrectomy); experiment: Micropuncture (glomerular hemodynamics) in remnant kidney rats; assay type: in vivo, Sprague-Dawley rats; design: SNGFR lower than RK control group / glomerular plasma flow lower than RK control group / Kf lower than RK control group / afferent resistance higher compared to RK control / efferent resistance higher compared to RK control: concentration or dose not given beside the values
Description: as §1, §5, §3, §4

[6] = system: normal rats on normal sodium diet; experiment: Renal histology, afferent arteriole morphology in normal rats; assay type: in vivo, Sprague-Dawley rats
Description: as §2, §6
Quantification of morphology: Quantifications were performed blinded. […] The media/lumen ratio was calculated by the outline/inline relationship.

[7] = micropuncture at 5 weeks, mean±SE
[8] = micropuncture at 4 weeks, mean±SE

SMILES: O=C(O)c1nc(=O)[nH]c(=O)[nH]1 [OA, oxonic acid]
- afferent resistance higher ([1]; hyperuricemic vs control): 45%
- decrease of SNGFR ([1]; hyperuricemic vs control): 35%
- efferent resistance higher ([1]; hyperuricemic vs control): 64%
- GFR [1, 7]: 0.71 ± 0.1 mL/min
- KF (ultrafiltration coefficient) [1, 7]: 0.027 ± 0.002 nl/s/mmHg
- MAP (mean arterial pressure) [1, 7]: 131 ± 4 mmHg
- PGC (glomerular capillary hydrostatic pressure) [1, 7]: 56 ± 2 mmHg
- QA (single-nephron plasma flow) [1, 7]: 66.1 ± 7.2 nL/min
- RA (afferent resistance) [1, 7]: 4.82 ± 0.67 dyn/s/cm^−5
- RE (efferent resistance) [1, 7]: 2.83 ± 0.19 dyn/s/cm^−5
- SNGFR (single-nephron GFR) [1, 7]: 17.8 ± 2 nL/min
- Glomerulosclerosis ([2]; Masson's trichrome): 0.33 ± 0.07%
- TI Fibrosis ([2]; Masson's trichrome): 780.2 ± 55.0 arbitrary units
- TI CD5 + (tubulointerstitial infiltration of CD5 positive cells) ([2]; immunoperoxidase): 26.1 cells/mm^2 and 26.1 ± 2.99 cells/mm^2
- AA M/L (afferent arteriole media to lumen ratio) [2]: 6.4 ± 0.37
- AA M/L (afferent arteriole media to lumen ratio) ([2]; listed as Oxonic acid): 6.4
- reduction of serum NOx vs control (Male Sprague-Dawley rats; hyperuricemic rats at both 1 day and 7 days): 40-50%
- serum uric acid (Male Sprague-Dawley rats; rats, 1 day): 1.7 ± 0.7 mg/dL
- Serum nitrites and nitrates (NOx) (Male Sprague-Dawley rats; rats, 1 day): 15.6 ± 0.4 µmol/L
- serum uric acid (Male Sprague-Dawley rats; rats, 7 days): 1.8 ± 0.4 mg/dL
- Serum nitrites and nitrates (NOx) (Male Sprague-Dawley rats; rats, 7 days): 14.6 ± 1.1 µmol/L
- systolic blood pressure (Male Sprague-Dawley rats; rats, 7 days, tail cuff): 178±18 mm Hg
- Uprot (proteinuria) ([3]; 25-28 days, mean±SE): 246 ± 29 mg/day
- SUA (serum uric acid) ([3]; OA 750 mg/kg gavage, AP 150 mg/L drinking water, 25-28 days, mean±SE): 4.5 ± 0.4 mg/dL
- SBP (systolic blood pressure) ([3]; tail cuff, 25-28 days, mean±SE): 191 ± 10 mmHg
- additional rise of proteinuria ([3]; vs RK control): two fold
- further increase of SBP ([3]; vs RK control): 30 mmHg
- increase of serum uric acid ([3]; vs RK control): two fold
- SUA (serum uric acid) ([4]; normal salt diet, OA 750 mg/kg gavage, AP 150 mg/L drinking water, 30-33 days, mean±SE): 5.4 ± 0.2 mg/dL
- SBP (systolic blood pressure) ([4]; normal salt diet, tail cuff, 30-33 days, mean±SE): 134 ± 3 mmHg
- increment of serum uric acid ([4]; vs control): two-fold
- Kf lower than RK control group [5]: 50%
- SNGFR lower than RK control group [5]: 40%
- afferent resistance higher compared to RK control [5]: 120%
- efferent resistance higher compared to RK control [5]: 80%
- glomerular plasma flow lower than RK control group [5]: 40%
- GFR [5, 8]: 0.4 ± 0.1 mL/min
- KF (ultrafiltration coefficient) [5, 8]: 0.02 nl/s/mmHg and 0.024 ± 0.003 nl/s/mmHg
- MAP (mean arterial pressure) [5, 8]: 184 ± 6 mmHg
- PGC (glomerular capillary pressure) [5, 8]: 62 mmHg and 62 ± 1 mmHg
- QA (glomerular plasma flow) [5, 8]: 147 nL/min and 146.5 ± 20.4 nL/min
- RA (afferent resistance) [5, 8]: 4.6 dyn/s/cm^−5 and 4.55 ± 0.66 dyn/s/cm^−5
- RE (efferent resistance) [5, 8]: 1.8 dyn/s/cm^−5 and 1.83 ± 022 dyn/s/cm^−5
- SNGFR (single-nephron GFR) [5, 8]: 40.6 nL/min and 40.7 ± 6.0 nL/min
- AA M/L (afferent arteriole media/lumen ratio) ([6]; after micropuncture, mean±SE): 5.1 ± 0.6

SMILES: Oc1ncnc2[nH]ncc12 [AP, allopurinol]
- effect on glomerular hemodynamic alterations of hyperuricemia ([1]; concomitant with oxonic acid): prevented these alterations
- AA M/L (afferent arteriole media to lumen ratio) [2]: 1.8
- change in NOx concentration (Male Sprague-Dawley rats; rats treated with AP alone): did not show a significant change
- change in serum UA concentration (Male Sprague-Dawley rats; rats treated with AP alone): did not show a significant change
- serum uric acid (Male Sprague-Dawley rats; rats, 1 day): 1.52 ± 0.3 mg/dL
- Serum nitrites and nitrates (NOx) (Male Sprague-Dawley rats; rats, 1 day): 17.4 ± 0.8 µmol/L
- serum uric acid (Male Sprague-Dawley rats; rats, 7 days): 0.3 ± 0.2 mg/dL
- Serum nitrites and nitrates (NOx) (Male Sprague-Dawley rats; rats, 7 days): 25.0 ± 0.8 µmol/L
- effect on SBP ([3]; concomitant with oxonic acid): only a marginal effect
- effect on hyperuricemia ([3]; concomitant with oxonic acid): prevented
- effect on proteinuria ([3]; concomitant with oxonic acid): prevented
- effect on the hypertension induced by oxonic acid ([4]; concurrent with oxonic acid): prevented
- effect on the increase of serum uric acid induced by oxonic acid ([4]; concurrent with oxonic acid): prevented
- PGC, in words ([5]; AP with oxonic acid, in the presence of systemic hypertension): normal and significantly lower than RK hyperuricemic rats
- SNGFR (single-nephron GFR) [5, 8]: 53 nL/min
- effect on thickening of afferent arterioles ([6]; with oxonic acid): prevented

Reference: US20080317728A1, “Lowering Uric Acid to Prevent or Accelerate Recovery of Acute Renal Failure” (UNIVERSITY OF FLORIDA RESEARCH FOUNDATION, INC., priority 2004, published 2008)
